Experimental data published in ChEMBL document CHEMBL5212743, “Selectivity Literature for EUbOPEN Chemogenomics Library wave 3” (2023).

Legend:
[1] = molecular target: Testis-specific serine/threonine-protein kinase 1 (Homo sapiens) (UniProt Q9BXA7); assay: Selectivity interaction (ScanMAX (DiscoverX)) EUB0000285b TSSK1B; conditions: at 1 µM
[2] = molecular target: Testis-specific serine/threonine-protein kinase 1 (Homo sapiens, UniProt Q9BXA7); assay: Selectivity interaction (ScanMAX (DiscoverX, competition-binding assay)) EUB0000285b TSSK1B
[3] = molecular target: Serine/threonine-protein kinase 4 (Homo sapiens, UniProt Q13043); assay: Selectivity interaction (ScanMAX (DiscoverX, competition-binding assay)) EUB0000285b STK4
[4] = molecular target: T1, Leukocyte tyrosine kinase receptor (Homo sapiens, UniProt P29376); assay: Selectivity interaction (ScanMAX (DiscoverX)) EUB0000285b LTK; conditions: at 1 µM
[5] = molecular target: T2, Serine/threonine-protein kinase PAK 3 (Homo sapiens, UniProt O75914); assay: Selectivity interaction (ScanMAX (DiscoverX, competition-binding assay)) EUB0000285b PAK3
[6] = molecular target: Serine/threonine-protein kinase LATS1 (Homo sapiens, UniProt O95835); assay: Selectivity interaction (ScanMAX (DiscoverX, competition-binding assay)) EUB0000285b LATS1
[7] = molecular target: T1, Leukocyte tyrosine kinase receptor; assay: Selectivity interaction (ScanMAX (DiscoverX, competition-binding assay)) EUB0000285b LTK
[8] = molecular target: T3, Serine/threonine-protein kinase 32C (Homo sapiens, UniProt Q86UX6); assay: Selectivity interaction (ScanMAX (DiscoverX, competition-binding assay)) EUB0000285b STK32C
[9] = molecular target: Serine/threonine-protein kinase 4 (Homo sapiens) (UniProt Q13043); assay: Selectivity interaction (ScanMAX (DiscoverX)) EUB0000285b STK4; conditions: at 1 µM
[10] = molecular target: T4, Serine/threonine-protein kinase LATS1 (Homo sapiens) (UniProt O95835); assay: Selectivity interaction (ScanMAX (DiscoverX)) EUB0000285b LATS1; conditions: at 1 µM
T4 sequence (whole entry): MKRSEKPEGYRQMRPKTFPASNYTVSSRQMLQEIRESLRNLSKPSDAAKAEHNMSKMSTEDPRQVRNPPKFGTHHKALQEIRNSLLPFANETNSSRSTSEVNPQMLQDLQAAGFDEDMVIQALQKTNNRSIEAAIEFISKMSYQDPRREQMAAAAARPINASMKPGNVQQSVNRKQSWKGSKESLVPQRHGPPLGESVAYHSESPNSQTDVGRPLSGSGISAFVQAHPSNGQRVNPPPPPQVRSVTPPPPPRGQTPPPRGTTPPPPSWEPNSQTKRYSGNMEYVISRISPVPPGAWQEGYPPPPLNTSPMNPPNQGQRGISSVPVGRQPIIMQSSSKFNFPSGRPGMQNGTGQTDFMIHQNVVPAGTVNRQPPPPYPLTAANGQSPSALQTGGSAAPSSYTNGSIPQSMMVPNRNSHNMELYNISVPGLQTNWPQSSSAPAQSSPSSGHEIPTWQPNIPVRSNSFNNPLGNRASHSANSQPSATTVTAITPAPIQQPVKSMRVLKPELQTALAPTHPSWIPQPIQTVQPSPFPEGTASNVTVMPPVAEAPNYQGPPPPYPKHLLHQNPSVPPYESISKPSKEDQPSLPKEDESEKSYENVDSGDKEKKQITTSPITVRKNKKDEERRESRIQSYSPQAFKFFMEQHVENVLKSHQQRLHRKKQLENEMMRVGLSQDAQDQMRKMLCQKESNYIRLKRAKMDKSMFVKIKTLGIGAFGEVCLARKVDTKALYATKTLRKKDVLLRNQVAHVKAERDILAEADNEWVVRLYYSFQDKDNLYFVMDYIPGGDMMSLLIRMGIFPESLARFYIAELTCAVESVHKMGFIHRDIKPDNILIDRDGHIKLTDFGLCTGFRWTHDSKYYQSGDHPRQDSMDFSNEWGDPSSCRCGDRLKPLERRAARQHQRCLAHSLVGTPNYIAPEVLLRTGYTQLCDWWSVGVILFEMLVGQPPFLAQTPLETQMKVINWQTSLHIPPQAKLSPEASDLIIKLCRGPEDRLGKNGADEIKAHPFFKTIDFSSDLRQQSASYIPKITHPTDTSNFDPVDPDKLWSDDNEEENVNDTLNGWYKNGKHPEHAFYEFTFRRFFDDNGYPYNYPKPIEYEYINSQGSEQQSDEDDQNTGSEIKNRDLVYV

[11] = molecular target: T2, Serine/threonine-protein kinase PAK 3; assay: Selectivity interaction (ScanMAX (DiscoverX)) EUB0000285b PAK3; conditions: at 1 µM
[12] = molecular target: T3, Serine/threonine-protein kinase 32C; assay: Selectivity interaction (ScanMAX (DiscoverX)) EUB0000285b STK32C; conditions: at 1 µM
[13] = molecular target: Alpha-2A adrenergic receptor (Homo sapiens, UniProt P08913); assay: Selectivity interaction (GPCR panel (PDSP screen)) EUB0000327a ADRA2A
[14] = molecular target: Sodium-dependent dopamine transporter (Homo sapiens, UniProt Q01959); assay: Selectivity interaction (GPCR panel (PDSP screen)) EUB0000327a SLC6A3
[15] = molecular target: T5, Epidermal growth factor receptor (Homo sapiens, UniProt P00533); assay: (§1) Selectivity interaction (ScanMAX (DiscoverX)) EUB0000232b EGFR; conditions: at 1 µM
[16] = molecular target: T6, Tyrosine-protein kinase Lck (Homo sapiens, UniProt P06239); assay: Selectivity interaction (ScanMAX (DiscoverX)) EUB0000232b LCK; conditions: at 1 µM
Target sequence in this assay (P06239 2-509 limits assumed): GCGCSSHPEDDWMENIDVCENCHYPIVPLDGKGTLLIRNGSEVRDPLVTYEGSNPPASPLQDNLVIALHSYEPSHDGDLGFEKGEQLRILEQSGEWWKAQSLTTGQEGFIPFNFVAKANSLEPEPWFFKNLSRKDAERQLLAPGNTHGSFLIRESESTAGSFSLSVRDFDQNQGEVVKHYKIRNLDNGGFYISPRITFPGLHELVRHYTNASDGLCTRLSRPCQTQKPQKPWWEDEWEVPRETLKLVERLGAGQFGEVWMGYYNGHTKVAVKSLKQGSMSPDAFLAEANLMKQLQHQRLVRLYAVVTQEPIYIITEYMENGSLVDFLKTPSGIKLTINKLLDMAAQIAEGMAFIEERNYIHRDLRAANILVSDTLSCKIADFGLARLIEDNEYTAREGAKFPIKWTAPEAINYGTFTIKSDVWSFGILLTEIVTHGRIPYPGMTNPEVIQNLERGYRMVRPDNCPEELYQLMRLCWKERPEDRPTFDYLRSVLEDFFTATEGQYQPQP

[17] = molecular target: T5, Epidermal growth factor receptor; assay: Selectivity interaction (ScanMAX (DiscoverX, competition-binding assay)) EUB0000232b EGFR
[18] = molecular target: T7, STE20-like serine/threonine-protein kinase (Homo sapiens, UniProt Q9H2G2); assay: Selectivity interaction (ScanMAX (DiscoverX)) EUB0000232b SLK; conditions: at 1 µM
[19] = molecular target: T7, STE20-like serine/threonine-protein kinase; assay: Selectivity interaction (ScanMAX (DiscoverX, competition-binding assay)) EUB0000232b SLK
[20] = molecular target: T8, Tyrosine-protein kinase SYK (Homo sapiens, UniProt P43405); assay: Selectivity interaction (ScanMAX (DiscoverX, competition-binding assay)) EUB0000232b SYK
[21] = system: Epidermal growth factor receptor (Homo sapiens), P00533 [L858R]; assay: as §1; conditions: at 1 µM
[22] = molecular target: T5, Epidermal growth factor receptor; assay: as §1; conditions: at 1 µM; remark: listed apart in the source
[23] = molecular target: T8, Tyrosine-protein kinase SYK; assay: Selectivity interaction (ScanMAX (DiscoverX)) EUB0000232b SYK; conditions: at 1 µM
[24] = molecular target: T6, Tyrosine-protein kinase Lck; assay: Selectivity interaction (ScanMAX (DiscoverX, competition-binding assay)) EUB0000232b LCK
Target sequence in this assay (P06239 whole entry): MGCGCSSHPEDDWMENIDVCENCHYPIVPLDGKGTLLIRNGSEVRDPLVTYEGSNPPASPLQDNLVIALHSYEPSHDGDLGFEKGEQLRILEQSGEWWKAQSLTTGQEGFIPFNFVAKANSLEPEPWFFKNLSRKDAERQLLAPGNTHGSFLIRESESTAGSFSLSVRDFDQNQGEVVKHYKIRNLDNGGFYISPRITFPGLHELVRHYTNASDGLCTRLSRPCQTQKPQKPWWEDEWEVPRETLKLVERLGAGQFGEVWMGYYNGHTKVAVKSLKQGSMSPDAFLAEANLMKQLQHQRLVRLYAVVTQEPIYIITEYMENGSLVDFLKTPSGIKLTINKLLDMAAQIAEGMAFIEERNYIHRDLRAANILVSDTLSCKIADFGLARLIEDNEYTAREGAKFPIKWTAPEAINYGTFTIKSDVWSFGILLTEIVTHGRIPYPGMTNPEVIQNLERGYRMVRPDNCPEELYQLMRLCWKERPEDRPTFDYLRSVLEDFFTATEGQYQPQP

T5 sequence (P00533 whole entry): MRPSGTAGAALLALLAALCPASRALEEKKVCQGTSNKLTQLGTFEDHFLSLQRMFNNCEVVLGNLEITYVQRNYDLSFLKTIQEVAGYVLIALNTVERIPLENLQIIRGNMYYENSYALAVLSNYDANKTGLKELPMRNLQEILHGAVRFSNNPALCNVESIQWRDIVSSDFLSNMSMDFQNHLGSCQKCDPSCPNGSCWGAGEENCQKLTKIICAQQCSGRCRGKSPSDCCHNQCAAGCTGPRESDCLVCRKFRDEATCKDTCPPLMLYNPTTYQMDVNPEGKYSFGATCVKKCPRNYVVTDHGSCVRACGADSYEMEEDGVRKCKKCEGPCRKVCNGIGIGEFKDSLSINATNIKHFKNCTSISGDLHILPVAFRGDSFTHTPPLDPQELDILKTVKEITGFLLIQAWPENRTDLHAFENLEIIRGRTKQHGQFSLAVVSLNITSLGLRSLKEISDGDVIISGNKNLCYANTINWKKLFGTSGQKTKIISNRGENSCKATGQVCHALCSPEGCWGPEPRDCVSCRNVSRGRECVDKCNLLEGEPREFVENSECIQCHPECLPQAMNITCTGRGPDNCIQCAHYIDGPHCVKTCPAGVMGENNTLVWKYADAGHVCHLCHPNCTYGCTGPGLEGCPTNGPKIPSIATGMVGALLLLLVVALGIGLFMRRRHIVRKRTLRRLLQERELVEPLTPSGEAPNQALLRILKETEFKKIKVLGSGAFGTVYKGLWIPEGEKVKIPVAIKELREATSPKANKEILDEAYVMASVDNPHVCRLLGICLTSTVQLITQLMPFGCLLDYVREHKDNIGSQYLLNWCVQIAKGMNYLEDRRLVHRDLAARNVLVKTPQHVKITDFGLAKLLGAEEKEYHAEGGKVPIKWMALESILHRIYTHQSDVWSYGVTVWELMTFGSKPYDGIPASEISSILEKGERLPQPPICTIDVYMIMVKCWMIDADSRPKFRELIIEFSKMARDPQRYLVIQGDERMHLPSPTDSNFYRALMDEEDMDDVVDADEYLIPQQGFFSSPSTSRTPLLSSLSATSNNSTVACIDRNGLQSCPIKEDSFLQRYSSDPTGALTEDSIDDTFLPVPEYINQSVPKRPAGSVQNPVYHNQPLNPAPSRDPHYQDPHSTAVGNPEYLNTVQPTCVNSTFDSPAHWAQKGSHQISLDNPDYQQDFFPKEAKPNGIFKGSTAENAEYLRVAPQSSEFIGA
T1 sequence (P29376 whole entry): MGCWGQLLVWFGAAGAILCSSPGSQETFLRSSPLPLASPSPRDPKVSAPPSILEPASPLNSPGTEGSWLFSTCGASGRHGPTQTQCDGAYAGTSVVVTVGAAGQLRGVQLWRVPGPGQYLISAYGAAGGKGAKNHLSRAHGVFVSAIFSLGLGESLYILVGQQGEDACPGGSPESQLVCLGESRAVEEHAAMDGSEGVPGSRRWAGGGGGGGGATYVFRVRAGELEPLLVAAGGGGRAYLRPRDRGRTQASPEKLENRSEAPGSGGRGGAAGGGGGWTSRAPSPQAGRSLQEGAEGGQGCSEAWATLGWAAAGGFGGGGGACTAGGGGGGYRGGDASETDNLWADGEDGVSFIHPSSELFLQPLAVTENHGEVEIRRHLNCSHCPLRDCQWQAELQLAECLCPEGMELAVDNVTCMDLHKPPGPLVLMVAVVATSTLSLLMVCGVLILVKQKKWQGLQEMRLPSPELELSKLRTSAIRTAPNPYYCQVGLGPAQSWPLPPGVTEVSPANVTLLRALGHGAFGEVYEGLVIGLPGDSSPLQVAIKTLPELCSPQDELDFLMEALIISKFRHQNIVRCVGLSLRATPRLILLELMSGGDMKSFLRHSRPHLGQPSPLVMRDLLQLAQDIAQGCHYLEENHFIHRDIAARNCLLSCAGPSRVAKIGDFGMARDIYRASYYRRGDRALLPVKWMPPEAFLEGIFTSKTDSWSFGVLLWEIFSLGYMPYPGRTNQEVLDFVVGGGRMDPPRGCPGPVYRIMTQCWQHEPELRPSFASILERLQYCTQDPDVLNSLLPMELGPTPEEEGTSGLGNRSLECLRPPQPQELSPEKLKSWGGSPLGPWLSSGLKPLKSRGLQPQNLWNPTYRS
T3 sequence (Q86UX6 whole entry): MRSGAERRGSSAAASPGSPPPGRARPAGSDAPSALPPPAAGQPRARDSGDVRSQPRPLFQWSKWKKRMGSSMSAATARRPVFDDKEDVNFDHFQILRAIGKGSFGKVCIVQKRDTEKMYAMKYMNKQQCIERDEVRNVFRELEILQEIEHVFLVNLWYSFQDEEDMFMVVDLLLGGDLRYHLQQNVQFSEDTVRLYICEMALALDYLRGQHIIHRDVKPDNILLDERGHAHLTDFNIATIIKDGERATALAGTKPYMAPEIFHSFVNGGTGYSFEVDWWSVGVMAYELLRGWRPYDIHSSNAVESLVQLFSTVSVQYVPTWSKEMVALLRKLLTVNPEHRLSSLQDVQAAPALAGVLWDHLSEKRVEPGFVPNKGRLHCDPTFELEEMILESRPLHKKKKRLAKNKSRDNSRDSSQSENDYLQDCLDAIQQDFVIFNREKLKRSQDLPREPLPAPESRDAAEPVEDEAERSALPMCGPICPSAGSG
Sequence of Serine/threonine-protein kinase 4 (Homo sapiens) (Q13043 whole entry): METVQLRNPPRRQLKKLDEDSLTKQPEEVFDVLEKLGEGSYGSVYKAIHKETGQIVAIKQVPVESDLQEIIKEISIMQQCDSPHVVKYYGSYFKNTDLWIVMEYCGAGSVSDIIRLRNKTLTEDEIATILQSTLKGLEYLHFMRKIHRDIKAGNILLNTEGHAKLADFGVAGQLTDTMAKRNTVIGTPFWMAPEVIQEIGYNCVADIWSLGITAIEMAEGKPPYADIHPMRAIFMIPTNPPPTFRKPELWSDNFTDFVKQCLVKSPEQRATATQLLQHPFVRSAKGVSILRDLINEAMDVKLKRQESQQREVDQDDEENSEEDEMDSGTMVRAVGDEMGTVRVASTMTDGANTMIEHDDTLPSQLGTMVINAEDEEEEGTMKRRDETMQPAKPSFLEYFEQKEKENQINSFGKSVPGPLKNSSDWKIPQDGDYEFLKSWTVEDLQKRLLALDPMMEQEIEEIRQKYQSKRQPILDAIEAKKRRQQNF
Sequence of Serine/threonine-protein kinase 4 (Q13043 whole entry): as above
Sequence of Sodium-dependent dopamine transporter (Q01959 whole entry): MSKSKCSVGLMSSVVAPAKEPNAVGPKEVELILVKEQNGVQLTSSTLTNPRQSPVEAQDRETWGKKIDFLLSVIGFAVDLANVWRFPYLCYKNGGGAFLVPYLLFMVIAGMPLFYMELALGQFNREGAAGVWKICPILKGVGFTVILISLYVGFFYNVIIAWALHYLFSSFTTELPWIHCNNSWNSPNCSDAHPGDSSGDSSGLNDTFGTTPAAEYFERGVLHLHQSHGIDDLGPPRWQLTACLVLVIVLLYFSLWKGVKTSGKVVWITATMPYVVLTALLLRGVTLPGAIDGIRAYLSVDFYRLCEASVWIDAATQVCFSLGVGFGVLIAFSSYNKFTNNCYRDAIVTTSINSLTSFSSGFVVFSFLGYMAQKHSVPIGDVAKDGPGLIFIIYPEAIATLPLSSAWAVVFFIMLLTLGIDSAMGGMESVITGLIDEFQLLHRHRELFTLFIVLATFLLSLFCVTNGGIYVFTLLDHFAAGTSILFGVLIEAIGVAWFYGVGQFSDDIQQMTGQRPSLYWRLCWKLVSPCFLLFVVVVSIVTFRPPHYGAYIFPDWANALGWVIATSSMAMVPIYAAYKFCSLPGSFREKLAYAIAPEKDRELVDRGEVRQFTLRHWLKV

O=C(NCc1ccccc1)c1ccc(S(=O)(=O)NCc2ccccc2)cc1
% of control [1]: 0%
Kd [2]: > 10 µM
Kd [3]: > 10 µM
% of control [4]: 0%
Kd [5]: > 10 µM
Kd [6]: > 10 µM
Kd [7]: > 10 µM
Kd [8]: > 10 µM
% of control [9]: 0%
% of control [10]: 8.6%
% of control [11]: 0%
% of control [12]: 0%

O=C(NNS(=O)(=O)c1ccccc1)c1cc(-c2ccnnc2)ccc1F [WM-2474]
Ki [13]: > 10 µM
Ki [14]: > 10 µM

CCCCN(Cc1ccccc1)C(=O)c1ccc(S(=O)(=O)Nc2ccccc2)cc1
% of control [15]: 0%
% of control [16]: 0%
Kd [17]: > 10 µM
% of control [18]: 0%
Kd [19]: > 10 µM
Kd [20]: > 10 µM
% of control [21]: 0%
% of control [22]: 4.9%
% of control [23]: 1.7%
Kd [24]: > 10 µM
